Results from patent US5703236A, “Tetrahydrofuran antifungals” (Schering Corporation, priority 1995, dated 1997).

What was measured:
Candida krusei = assay: conventional broth dilution in vitro antifungal test, Candida krusei; format: cell-based; settings: 16 strains
Protocol: (§1) The in vitro antifungal activity tests were performed via conventional broth dilution methods in Sabouraud dextrose broth ("SDB") medium and Eagles Minimum Essential Medium ("EMEM") against a large number of fungi. Minimum Inhibitory Concentrations ("MICs") were measured after 24, 48 and 72 hour tests. In many cases, Minimum Fungicidial Concentrations ("MFCS") were measured after 48 and 72 hours.

[1] = test system: Candida tropicalis & stellatoidea; assay: conventional broth dilution in vitro antifungal test, Candida tropicalis & stellatoidea; format: cell-based; settings: 5 strains
Protocol: as §1

Dermatophytes = assay: conventional broth dilution in vitro antifungal test, dermatophytes; format: cell-based, T. rubrum, T. mentagrophytes, and T. tonsurans; settings: 6 strains
Cryptococcus neoformans = assay: conventional broth dilution in vitro antifungal test, Cryptococcus neoformans; format: cell-based; settings: 3 strains; for MIC 90: Table S
Protocol: as §1

Candida albicans = assay: conventional broth dilution in vitro antifungal test, Candida albicans; format: cell-based; settings: 26 strains; for percentage of strains with MFCs ≤ 1 mcg/mL: Table R (MFCs); for PERCENTAGE OF STRAINS WITH MICs ≤ 1 MCG/ML: Table Q
Protocol: as §1

Aspergillus = assay: conventional broth dilution in vitro antifungal test, Aspergillus; format: cell-based, Aspergillus flavus, fumigatus and other species; settings: 37 strains
Protocol: as §1

Candida glabrata = assay: conventional broth dilution in vitro antifungal test, Candida glabrata; format: cell-based; settings: 9 strains; for percentage of strains with MFCs ≤ 1 mcg/mL: Table R (MFCs); for PERCENTAGE OF STRAINS WITH MICs ≤ 1 MCG/ML: Table Q
Protocol: as §1

[2] = serum levels, half lives and tissue distribution following oral dosing; format: in vivo; settings: mice, rats, dogs and monkeys, methyl cellulose formulation
[3] = test system: cytochrome P-450 liver drug metabolizing enzymes; assay: induction of cytochrome P-450 liver drug metabolizing enzymes, in vivo rat model; settings: oral administration

| SMILES | PERCENTAGE OF STRAINS WITH MICs ≤ 1 MCG/ML (Candida krusei; Table R (MFCs)) | PERCENTAGE OF STRAINS WITH MICs ≤ 1 MCG/ML ([1]; Table R (MFCs)) | PERCENTAGE OF STRAINS WITH MICs ≤ 1 MCG/ML (Dermatophytes; Table R (MFCs)) | PERCENTAGE OF STRAINS WITH MICs ≤ 1 MCG/ML (Cryptococcus neoformans; Table R (MFCs)) | percentage of strains with MFCs ≤ 1 mcg/mL (Candida albicans) | PERCENTAGE OF STRAINS WITH MICs ≤ 1 MCG/ML (Aspergillus; Table R (MFCs)) | percentage of strains with MFCs ≤ 1 mcg/mL (Candida glabrata) | serum levels compared to azoles of similar structure [2] | induction of cytochrome P-450 liver drug metabolizing enzymes [3] | PERCENTAGE OF STRAINS WITH MICs ≤ 1 MCG/ML (Candida krusei; Table Q) | PERCENTAGE OF STRAINS WITH MICs ≤ 1 MCG/ML ([1]; Table Q) | PERCENTAGE OF STRAINS WITH MICs ≤ 1 MCG/ML (Dermatophytes; Table Q) | PERCENTAGE OF STRAINS WITH MICs ≤ 1 MCG/ML (Cryptococcus neoformans; Table Q) | MIC 90 (Cryptococcus neoformans) | PERCENTAGE OF STRAINS WITH MICs ≤ 1 MCG/ML (Candida albicans) | PERCENTAGE OF STRAINS WITH MICs ≤ 1 MCG/ML (Aspergillus; Table Q) | PERCENTAGE OF STRAINS WITH MICs ≤ 1 MCG/ML (Candida glabrata) |
| --- | --- | --- | --- | --- | --- | --- | --- | --- | --- | --- | --- | --- | --- | --- | --- | --- | --- |
| OC(Cn1cncn1)(Cn1cncn1)c1ccc(F)cc1F [FLZ, fluconazole, reference compound] | 0% | 100% | 0% | 0% | 100% | 0% | 0% | – | – | – | – | – | – | – | – | – | – |
| CCC(C(C)O)n1ncn(-c2ccc(N3CCN(c4ccc(OCC5COC(Cn6cncn6)(c6ccc(F)cc6F)C5)cc4)CC3)cc2)c1=O (centres unmarked) [drawing 28] | – | – | – | – | – | – | – | consistently higher serum levels | not inducers of various cytochrome P-450 liver drug metabolizing enzymes | – | – | – | – | – | – | – | – |
| CCC(C(C)O)n1ncn(-c2ccc(N3CCN(c4ccc(OCC5COC(Cn6cncn6)(c6ccc(F)cc6F)C5)cc4)CC3)cc2)c1=O (centres unmarked) [drawing 29] | 88% | 100% | 67% | 100% | 100% | 50% | 22% | – | – | 100% | 100% | 100% | 100% | .05 MCG/ML | 100% | 100% | 22% |
| CCC(C(C)O)n1ncn(-c2ccc(N3CCN(c4ccc(OCC5COC(Cn6cncn6)(c6ccc(F)cc6F)C5)cc4)CC3)cc2)c1=O (centres unmarked) [drawing 30] | 94% | 100% | 83% | 100% | 100% | 62% | 22% | – | – | 100% | 100% | 100% | 100% | .007 MCG/ML | 100% | 100% | 22% |
| CCC(C(C)O)n1ncn(-c2ccc(N3CCN(c4ccc(OCC5COC(Cn6cncn6)(c6ccc(F)cc6F)C5)cc4)CC3)cc2)c1=O (centres unmarked) [drawing 31] | 100% | 100% | 100% | 100% | 100% | 89% | 22% | – | – | 100% | 100% | 100% | 100% | – | 100% | 100% | 33% |
